In US20110033393A1, “Hydrazone Compounds and Their Use” (priority 2009, published 2011):

System: GLUTag cells
Assay: GLP-1 release using GLUTag cells (Assay 1)
Assay type: cell-based, mouse
Procedure: Mouse GLUTag cells are a native intestinal cell line which expresses TRPM5. The cell line was obtained from Dr. Daniel J. Drucker in the Division of Endocrinology, Department of Medicine, at University of Toronto, and grown in Invitrogen Dulbecco's Modified Eagle's Medium (DMEM) high glucose (Cat#: 11995) with 10% fetal bovine serum (FBS) and 1× penn/strep antibiotic mix in a 37° C. incubator with 5% CO2.
Assay 1: All reagents and media were pre-warmed to room temperature prior to the beginning of the experiment.
Seeding of Cell Plate: BD 96-well Matrigel-coated plates (Fisher, Cat #: 08-774-166) were rehydrated using 100 μL of plating media (Invitrogen Cat #: 31985) OPTI-Modified Eagle's Medium (MEM) with 10% FBS and 1× penn/strep antibiotic mix and incubated for 30 minutes in a 37° C. incubator and 5% CO2. The rehydration media was aspirated and GLUTag cells were plated at 100 ul per well at a density of 7.5×10^5 cells/ml. The plates were then incubated overnight in a 37° C. incubator and 5% CO2.
The following protocol utilized the Millipore GLP-1 ELISA Kit (Cat. #: EGLP-35K) to analyze GLP-1 secretion from GLUTag cells in the presence of TRPM5 inhibitors/enhancers and glucose.
ELISA Assay Day 1: Stock solutions and dilution plates of TRPM5 inhibitors or enhancers were prepared. […]

What does the source list for Cc1cc(/C=N/NC(=O)C2CC2c2ccccc2)cc2cccnc12 (racemic) [Example 10, trans-N′-((8-Methylquinolin-6-yl)methylene)-2-phenylcyclopropanecarbohydrazide]?
GLP-1 secretion (in the presence of 0.1 mM glucose): is not observed; GLP-1 secretion (in the presence of 0.3 mM glucose): dose-dependent increase of GLP-1 secretion
